Laboratory results published in ChEMBL document CHEMBL4251725, “Azabicyclic Fused Pyrimidine Derivatives Useful for the Treatment of Alzheimer's Disease” (ACS Med Chem Lett, 2018).

Biological target: Gamma-secretase
Assay: Inhibition of gamma-secretase in human H4 cells harboring APP695 K595N/M596L swedish mutant after 24 hrs by AlphaLisa assay
Format: cell-based

Row | EC50 | Compound
1 | 14 nM | CNc1nc(Nc2ccc(-n3cnc(C)c3)c(OC)c2)nc2c1C(C)(C)CN2C1CC(F)(F)C1
2 | 8 nM | CNc1nc(Nc2ccc(-n3cnc(C)n3)c(F)c2)nc2c1C(C)(C)CCN2c1ccc(F)cc1
